Among the data in ChEMBL document CHEMBL2040774, “Potent antiviral HIV-1 protease inhibitor GRL-02031 adapts to the structures of drug resistant mutants with its P1'-pyrrolidinone ring” (J Med Chem, 2012) are Ki and Ratio Ki values, retold here.

The target in test [1] is Human immunodeficiency virus type 1 protease (Human immunodeficiency virus 1, UniProt Q72874, L76V). Briefly: Inhibition of HIV1 protease L76V mutant using Abz-Thr-Ile-Nle-p-nitro-Phe-Gln-Arg-NH2 as substrate after 5 mins by spectrophotometry.
Test [2] deals with Human immunodeficiency virus type 1 protease (Human immunodeficiency virus 1, UniProt Q72874, N88D). As to the kind of experiment: Inhibition of HIV1 protease N88D mutant using Abz-Thr-Ile-Nle-p-nitro-Phe-Gln-Arg-NH2 as substrate after 5 mins by spectrophotometry.
Test [3] concerns Human immunodeficiency virus 1. Briefly: Resistance index, ratio of Ki for HIV1 protease V82A mutant to Ki for HIV1 wild type protease.
In test [4] the test system is Human immunodeficiency virus 1. Briefly: Resistance index, ratio of Ki for HIV1 protease I47V mutant to Ki for HIV1 wild type protease.
The subject of test [5] is Human immunodeficiency virus 1. As to the kind of experiment: Resistance index, ratio of Ki for HIV1 protease N88D mutant to Ki for HIV1 wild type protease.
Test [6] deals with Human immunodeficiency virus type 1 protease (Human immunodeficiency virus 1, UniProt Q72874, I47V). As to the kind of experiment: Inhibition of HIV1 protease I47V mutant using Abz-Thr-Ile-Nle-p-nitro-Phe-Gln-Arg-NH2 as substrate after 5 mins by spectrophotometry.
Test [7] addresses Protease (Human immunodeficiency virus 1, UniProt Q9YQ12). As to the kind of experiment: Inhibition of HIV1 wild type protease using Abz-Thr-Ile-Nle-p-nitro-Phe-Gln-Arg-NH2 as substrate after 5 mins by spectrophotometry.
The target of test [8] is Human immunodeficiency virus type 1 protease (Human immunodeficiency virus 1, UniProt Q72874, V82A). As to the kind of experiment: Inhibition of HIV1 protease V82A mutant using Abz-Thr-Ile-Nle-p-nitro-Phe-Gln-Arg-NH2 as substrate after 5 mins by spectrophotometry.
The test system of test [9] is Human immunodeficiency virus 1. As to the kind of experiment: Resistance index, ratio of Ki for HIV1 protease L76V mutant to Ki for HIV1 wild type protease.

Structures are written as SMILES.

Sequence of Protease (Q9YQ12 whole entry): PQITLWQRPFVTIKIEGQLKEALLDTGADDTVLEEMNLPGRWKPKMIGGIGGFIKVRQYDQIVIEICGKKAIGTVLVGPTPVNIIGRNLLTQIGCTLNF

A word on the Ki: it is a measure of affinity in units of concentration, obtained from inhibition or displacement. Higher therefore signals weaker binding. For `COc1ccc(S(=O)(=O)N(C[C@H]2CCC(=O)N2)C[C@@H](O)[C@H](Cc2ccccc2)NC(=O)O[C@@H]2C[C@@H]3CCO[C@@H]3C2)cc1`, the Ki in test [1] was 0.8 nM; in [2], 0.92 nM; in test [6], 0.46 nM; in [7] it was 0.44 nM; in [8], 0.65 nM. The Ratio Ki in [3], in test [4], in [5] and in [9] was under 2 in each case.
